Laboratory results from US20050065066A1, “Stabilised insulin compositions” (priority 2002, published 2005).
Read-outs that look alike come from different tables or passages of the source.

Tests used:
[1] = target: T1, metal site of insulin R6 hexamers (Homo sapiens, UniProt P01308); conditions: taken from Huang et al., 1997; read-out: K4H3N; cited from earlier work
T1 construct: human insulin comprising additional amino acids, i.e. more than 51 amino acids

[2] = Disappearance rate from the subcutaneous depot following injection in pigs; assay type: in vivo; conditions: disappearance assay
Text: Formulations of the present invention were characterized by the disappearance rate from the subcutaneous depot following injection in pigs. Formulations of B28 Asp human insulin containing A14Tyr(^125I) B28 Asp human insulin were followed with an external γ-counter (Ribel et al., The pig as a model for subcutaneous absorption in man. In: Serrano-Ritos & Lefebre (Eds.): Diabetes (1985) proceedings ot the 12th congress of the international diabetes federation, Madrid, Spain, 1985 (Excerpta Medica, Amsterdam (1986) 891-896. Formulations of Insulin Aspart (0.6 mM, U100) containing 0.3 mM Zn^2+, 30 mM phenol, 2 mM phosphate buffer, and 1.6% glycerol, pH 7.4, were compared with the corresponding formulations containing 0.3 mM of the ligands shown below: where T50% is the time when 50% ot the A14Tyr(^125I) B28 Asp insulin has disappeared from the site of injection and Kd is the affinity of the ligand as measured by the TZD-assay described in “Analytical methods” below.

[3] = target: T1, metal site of insulin R6 hexamers; experiment: TZD-assay: fluorescence based displacement assay; assay type: binding; conditions: affinity towards the zinc site, TZD-assay; read-out: Kd(app)
Protocol: The binding affinity of ligands to the metal site of insulin R6 hexamers are measured in a fluorescense based displacement assay. The fluorescence of 5-(4-dimethylaminobenzylidene)thiazolidine-2,4-dione (TZD) which is a ligand for the metal site of insulin R6 is quenched upon displacement from the metal site to the solution. Titration of a ligand to a stock solution of insulin R6 hexamers with this compound mounted in the metal site allows the binding affinity of these ligands to be determined measuring the fluorescence at 455 nm upon excitation at 410 nm.
Stock solution: 0.02 mM human insulin, 0.007 mM Zn-acetate, 40 mM phenol, 0.01 mM TZD in 50 mM tris buffer adjusted to pH=8.0 with NaOH/ClO4^−.
The ligand is dissolved in DMSO to a concentration of 5 mM and added in aliquots to the stock solution to final concentrations of 0-250 µM.
Fluorescence measurements were carried out on a Perkin Elmer Spectrofluorometer LS50B. T main absorption band was excited at 410 nm and emission was detected at 455 nm. The resolution was 10 nm and 2.5 nm for excitation and emission, respectively.
This equation is fitted to the datapoints ΔF(455 nm))=ΔFmax* [ligand]free/(KD(app)*(1+[TZD]/KTZD)+[ligand]free)) KD(app) is the apparent dissociation constant and Fmax is the fluorescence at maximal ligand concentration. The value of KTZD is measured separately to 230 nM
Two different fitting-procedures can be used. One in which both parameters, KD(app) and Fmax, are adjusted to best fit the data and a second in which the value of Fmax is fixed (Fmax=1) and only KD(app) is adjusted. The given data are from the second fitting procedure. The Solver module of Microsoft Excel can be used to generate the fits from the data points.

[4] = Chemical stability of insulin formulations by RPC (reverse phase chromatography); assay type: physicochemical; conditions: formulated human insulin, 3 Zn2+ per hexamer
Protocol: (§1) The chemical stability of insulin formulations of the invention was characterised by HPLC (RPC, reverse phase chromatography and SEC, size exclusion chromatography). As reference, insulin formulated without ligands of the invention but with 0.3% DMSO was also investigated and shown below: [drawing]
FIG. 10. Reverse phase chromatography of formulated human insulin with 3 Zn^2+ per hexamer, 30 mM phenol, 150 mM mannitol, 3 mM phosphoric acid, sodium hydroxide to pH 7.4 and 0.3% DMSO corresponding to 3 ligands per hexamer at start (upper panel) and after storage for 2 weeks at 37° C. (lower panel): Preservatives before 20 min., “hydrophilic derivatives” (desamido-insulins) 20 min to main top insulin, “hydrophobic derivatives 1” main top to 64 min., and “hydrophobic derivatives 2” (insulin dimers) after 64 min.
(§2) Storage in HPLC 1 ml vials at 45° C. (5 d), 37° C. (2 w), 30° C. (6 w), 25° C. (10 w), 15° C. (30 w) gave about the same increase of transformation products correlating to an increase in reactions constants of a factor 3-4 per 10 degree.
RPC (reverse phase chromatography) on Waters SymmetryShield RP8 column, 150×4.6 mm and 3.5 μm, eluted by A: 0.2 M sodium sulfate+0.04 M sodium phosphate pH 7.2+10% acetonitrile and isocratically (i) or a gradient (g) of B: 70% acetonitrile [minutes/% B(i/g): 0/19, 21/24(i)(sudden change), 51/24(i), 81/39(g), 81.1/0(i), 82.3/19(i)] at flow of 0.9 mL/min and 30° C.

[5] = Chemical stability of insulin formulations by SEC (size exclusion chromatography); assay type: physicochemical; conditions: formulated human insulin, 3 Zn2+ per hexamer
Protocol: as §1, §2
SEC (size exclusion chromatography) on Waters insulin HMWP column, 300×7.8 mm, eluted by 15:20:65 of acetic acid: acetonitrile: arginine 1 g/L at flow of 1 mL/min and ambient temperature.

T1 sequence (P01308 25-54 limits assumed): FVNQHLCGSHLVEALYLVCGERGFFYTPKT
T1 sequence (P01308 90-110 limits assumed): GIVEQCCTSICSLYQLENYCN

| SMILES | effect on insulin aspart disappearance from subcutaneous injection site [2] | Kd [3] [nM] | hphil (hydrophilic derivatives, desamido-insulins) ([4]; 5° predicted) | hphob1 (hydrophobic derivatives 1) ([4]; 5° predicted) | hphob2 (hydrophobic derivatives 2, insulin dimers) ([4]; 5° predicted) | hphil (hydrophilic derivatives, desamido-insulins) ([4]; 15° C.) [% formed/year] | hphob1 (hydrophobic derivatives 1) ([4]; 15° C.) [% formed/year] | hphob2 (hydrophobic derivatives 2, insulin dimers) ([4]; 15° C.) [% formed/year] | hphil (hydrophilic derivatives, desamido-insulins) ([4]; 25° C.) [% formed/year] | hphob1 (hydrophobic derivatives 1) ([4]; 25° C.) [% formed/year] | hphob2 (hydrophobic derivatives 2, insulin dimers) ([4]; 25° C.) [% formed/year] | hphil (hydrophilic derivatives, desamido-insulins) ([4]; 30° C.) [% formed/year] | hphob1 (hydrophobic derivatives 1) ([4]; 30° C.) [% formed/year] | hphob2 (hydrophobic derivatives 2, insulin dimers) ([4]; 30° C.) [% formed/year] | hphil (hydrophilic derivatives, desamido-insulins) ([4]; 37° C.) [% formed/year] | hphob1 (hydrophobic derivatives 1) ([4]; 37° C.) [% formed/year] | hphob2 (hydrophobic derivatives 2, insulin dimers) ([4]; 37° C.) [% formed/year] | hphil (hydrophilic derivatives, desamido-insulins) ([4]; 45° C.) [% formed/year] | hphob1 (hydrophobic derivatives 1) ([4]; 45° C.) [% formed/year] | hphob2 (hydrophobic derivatives 2, insulin dimers) ([4]; 45° C.) [% formed/year] | other results |
| --- | --- | --- | --- | --- | --- | --- | --- | --- | --- | --- | --- | --- | --- | --- | --- | --- | --- | --- | --- | --- | --- |
| O=C(O)c1ccc([N+](=O)[O-])c(O)c1 [Example 4H3N, 3-hydroxy-4-nitro benzoic acid] | – | – | – | – | – | – | – | – | – | – | – | – | – | – | – | – | – | – | – | – | Kd [1]: 50000 nM |
| O=C(O)/C=C/c1ccc(/C=C2\SC(=O)NC2=O)cc1 [Example 462] | no effect | 58 | (0.293) % formed/year | (0.336) % formed/year | (0.062) % formed/year | 1.02 | 1.28 | 0.38 | 2.60 | 6.14 | 0.78 | 4.07 | 4.42 | 1.65 | 9.88 | 19.5 | 4.68 | 20.4 | 43.8 | 17.5 | dimer ([5]; 5° predicted): (0.048) % formed/year; dimer ([5]; 15° C.): 0.28 % formed/year; dimer ([5]; 25° C.): 1.09 % formed/year; dimer ([5]; 30° C.): 2.17 % formed/year; dimer ([5]; 37° C.): 6.24 % formed/year; dimer ([5]; 45° C.): 21.2 % formed/year |
| O=C(O)c1cc2cc(Br)ccc2cc1O [Example 533, 7-bromo-3-hydroxy-2-naphthoic acid] | no effect | 383 | (0.55) % formed/year | (0.19) % formed/year | (0.079) % formed/year | 1.80 | 0.85 | 0.42 | 4.06 | 5.67 | 1.46 | 6.76 | 6.42 | 2.25 | 12.5 | 22.4 | 7.02 | 30.7 | 62.1 | 23.4 | dimer ([5]; 5° predicted): (0.087) % formed/year; dimer ([5]; 15° C.): 0.45 % formed/year; dimer ([5]; 25° C.): 1.61 % formed/year; dimer ([5]; 30° C.): 2.86 % formed/year; dimer ([5]; 37° C.): 7.02 % formed/year; dimer ([5]; 45° C.): 26.3 % formed/year |
| O=C(O)c1ccc(Cn2c3ccccc3c3cc(-c4nn[nH]n4)ccc32)cc1 [Example 738, 9-(4-Carboxybenzyl)-3-(2H-tetrazol-5-yl)-9H-carbazole] | no effect | 171 | – | – | – | – | – | – | – | – | – | – | – | – | – | – | – | – | – | – | – |

More lines, main results first:

| effect on insulin aspart disappearance from subcutaneous injection site [2] | Kd [3] [nM] | hphil (hydrophilic derivatives, desamido-insulins) ([4]; 5° predicted) | hphob1 (hydrophobic derivatives 1) ([4]; 5° predicted) | hphob2 (hydrophobic derivatives 2, insulin dimers) ([4]; 5° predicted) | hphil (hydrophilic derivatives, desamido-insulins) ([4]; 15° C.) [% formed/year] | hphob1 (hydrophobic derivatives 1) ([4]; 15° C.) [% formed/year] | hphob2 (hydrophobic derivatives 2, insulin dimers) ([4]; 15° C.) [% formed/year] | hphil (hydrophilic derivatives, desamido-insulins) ([4]; 25° C.) [% formed/year] | hphob1 (hydrophobic derivatives 1) ([4]; 25° C.) [% formed/year] | hphob2 (hydrophobic derivatives 2, insulin dimers) ([4]; 25° C.) [% formed/year] | hphil (hydrophilic derivatives, desamido-insulins) ([4]; 30° C.) [% formed/year] | hphob1 (hydrophobic derivatives 1) ([4]; 30° C.) [% formed/year] | hphob2 (hydrophobic derivatives 2, insulin dimers) ([4]; 30° C.) [% formed/year] | hphil (hydrophilic derivatives, desamido-insulins) ([4]; 37° C.) [% formed/year] | hphob1 (hydrophobic derivatives 1) ([4]; 37° C.) [% formed/year] | hphob2 (hydrophobic derivatives 2, insulin dimers) ([4]; 37° C.) [% formed/year] | hphil (hydrophilic derivatives, desamido-insulins) ([4]; 45° C.) [% formed/year] | hphob1 (hydrophobic derivatives 1) ([4]; 45° C.) [% formed/year] | hphob2 (hydrophobic derivatives 2, insulin dimers) ([4]; 45° C.) [% formed/year] | SMILES | other results |
| --- | --- | --- | --- | --- | --- | --- | --- | --- | --- | --- | --- | --- | --- | --- | --- | --- | --- | --- | --- | --- | --- |
| no effect | 23 | – | – | – | – | – | – | – | – | – | – | – | – | – | – | – | – | – | – | O=C1NC(=O)/C(=C/c2cccc3ccccc23)S1 [Example 68, 5-Naphthalen-1-ylmethylenethiazolidine-2,4-dione] | – |
| no effect | 3 | – | – | – | – | – | – | – | – | – | – | – | – | – | – | – | – | – | – | Cc1ccccc1Cn1c2ccccc2c2cc(-c3nn[nH]n3)ccc21 [Example 756, 9-(2-Methylbenzyl)-3-(2H-tetrazol-5-yl)-9H-carbazole] | – |
